Legend:
[1] = molecular target: T1, complex I (Homo sapiens, UniProt O75251+O75306+P03886); experiment: spectrophotometric NADH oxidation, rotenone-sensitive complex I activity; format: biochemical; conditions: 120 uM NADH, 20 uM oxidized cytochrome c, pH 7.5, 37 °C; Q-site (ubiquinone reduction site), no effect at NADH site
T1 construct: gene NDUFS2; native respiratory complex I (whole multi-subunit complex)

[2] = molecular target: T2, complex I (bovine heart) (Bos taurus, UniProt P03887+P17694+P42026); experiment: as above; format: biochemical; conditions: 120 uM NADH, 20 uM oxidized cytochrome c, pH 7.5, 37 °C; Q-site (ubiquinone reduction site), no effect at NADH site
T2 construct: gene NDUFS2; native respiratory complex I (whole multi-subunit complex)
T2 sequence (P17694 34-463): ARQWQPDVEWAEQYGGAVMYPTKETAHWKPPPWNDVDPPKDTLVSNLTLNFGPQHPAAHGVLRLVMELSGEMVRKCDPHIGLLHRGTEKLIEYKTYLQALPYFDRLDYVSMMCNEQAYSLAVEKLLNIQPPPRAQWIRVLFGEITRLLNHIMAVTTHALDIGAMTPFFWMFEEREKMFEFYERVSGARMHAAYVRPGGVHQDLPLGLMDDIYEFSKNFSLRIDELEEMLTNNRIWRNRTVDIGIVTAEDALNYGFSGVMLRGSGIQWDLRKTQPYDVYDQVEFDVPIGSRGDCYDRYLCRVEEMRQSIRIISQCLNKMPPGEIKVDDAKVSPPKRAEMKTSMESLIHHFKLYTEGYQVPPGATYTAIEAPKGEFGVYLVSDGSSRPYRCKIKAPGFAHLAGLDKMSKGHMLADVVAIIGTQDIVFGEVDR
T2 sequence (P42026 38-216): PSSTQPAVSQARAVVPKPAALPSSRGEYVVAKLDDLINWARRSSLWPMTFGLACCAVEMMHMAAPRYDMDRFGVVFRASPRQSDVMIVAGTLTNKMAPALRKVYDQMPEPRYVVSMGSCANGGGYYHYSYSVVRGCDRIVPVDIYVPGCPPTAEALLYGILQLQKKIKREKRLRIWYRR
T2 sequence (P03887 whole entry): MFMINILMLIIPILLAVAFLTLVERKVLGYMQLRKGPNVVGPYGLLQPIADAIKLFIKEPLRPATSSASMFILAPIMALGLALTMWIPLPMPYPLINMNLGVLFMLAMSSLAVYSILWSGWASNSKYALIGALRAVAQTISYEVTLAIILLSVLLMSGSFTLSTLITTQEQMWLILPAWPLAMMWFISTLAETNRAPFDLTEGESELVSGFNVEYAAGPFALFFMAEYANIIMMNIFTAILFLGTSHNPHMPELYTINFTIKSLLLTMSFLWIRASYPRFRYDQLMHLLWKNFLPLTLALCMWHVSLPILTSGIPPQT

T1 sequence (O75306 34-463): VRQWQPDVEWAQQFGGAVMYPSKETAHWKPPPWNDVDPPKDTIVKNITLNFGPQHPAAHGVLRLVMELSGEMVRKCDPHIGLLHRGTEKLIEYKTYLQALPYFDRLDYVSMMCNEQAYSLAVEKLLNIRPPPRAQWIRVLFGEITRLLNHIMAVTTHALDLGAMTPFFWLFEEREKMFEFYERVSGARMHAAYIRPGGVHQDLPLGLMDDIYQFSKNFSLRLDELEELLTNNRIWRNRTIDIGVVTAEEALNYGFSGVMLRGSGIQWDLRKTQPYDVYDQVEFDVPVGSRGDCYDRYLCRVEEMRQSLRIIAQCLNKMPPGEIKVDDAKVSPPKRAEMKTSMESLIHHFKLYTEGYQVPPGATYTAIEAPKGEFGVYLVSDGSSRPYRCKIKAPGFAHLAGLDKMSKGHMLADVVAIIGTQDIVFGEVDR
T1 sequence (O75251 39-213): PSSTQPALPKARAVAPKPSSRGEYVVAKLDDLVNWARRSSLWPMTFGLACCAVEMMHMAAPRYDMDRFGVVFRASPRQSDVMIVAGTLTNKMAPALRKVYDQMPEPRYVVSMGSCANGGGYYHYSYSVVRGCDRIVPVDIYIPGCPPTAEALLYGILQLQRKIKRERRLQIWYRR
T1 sequence (P03886 whole entry): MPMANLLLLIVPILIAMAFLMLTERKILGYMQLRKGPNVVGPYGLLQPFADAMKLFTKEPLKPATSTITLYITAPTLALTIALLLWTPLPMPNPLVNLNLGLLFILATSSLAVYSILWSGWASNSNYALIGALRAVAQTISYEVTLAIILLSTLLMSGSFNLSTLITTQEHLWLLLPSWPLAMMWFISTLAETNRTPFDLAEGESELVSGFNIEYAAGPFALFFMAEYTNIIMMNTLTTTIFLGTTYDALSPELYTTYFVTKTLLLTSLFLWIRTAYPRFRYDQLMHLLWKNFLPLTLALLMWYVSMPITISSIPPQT

In the case of C[C@@H](C(=O)Nc1ccc(Cl)cc1)[C@H]1CC[C@@H](c2ccnc3ccc(F)cc32)CC1 [BMS-986205], the “complex I activity” value [1] is reported as “dose-dependent decrease of complex I activity in mitochondria from KRAS^G12V/MYC, HEK293T cells and bovine heart” and the “complex I activity” value [2] is reported as “dose-dependent decrease of complex I activity in mitochondria from KRAS^G12V/MYC, HEK293T cells and bovine heart”.

Source: article PMC12669732, “Synergistic targeting of cancer cells through simultaneous inhibition of key metabolic enzymes” (Cell Death and Differentiation, 2025)
